According to PMC4987125 (Molecular microbiology, 2015):
Where no end group is shown, it is not given here.

Key:
[1] = system: PepO in intact cells, lysed cells or conditioned supernatants; test: Activity-based screening for PepO localization; assay type: in vitro ADME, Streptococcus pyogenes; conditions: 50 nM sSHP2-C8, intact cells, lysed cells or conditioned supernatants of ΔoppD shp2GGG shp3GGG pepO+ and pepO- cultures, 30 °C, 4 hours; read-out ΔpepO shp2GGGshp3GGG Pshp3-lux reporter
[2] = system: Rgg2/3 quorum-sensing pathway (Pshp3-lux); test: Luminescence transcriptional reporter assay, Pshp3-lux; assay type: cell-based, Streptococcus pyogenes; conditions: WT NZ131 Pshp3-lux, CDM with 1% mannose and 0.05% glucose; 500 nM RI-10, 500 nM L10A or 10 mM MgSO4

## DILIIVGG [sSHP2-C8]
[1]
  PepO-dependent degradation of SHP in cellular fractions: found only in the cytoplasmic fraction

## O=S(=O)([O-])[O-].[Mg+2] [Mg^2+, MgSO4]
[2]
  effect on Pshp3-lux induction in mannose-induced wild-type reporter: unlike cultures treated with the inactive L10A variant or Mg^2+
